# Measurements reported in patent publication US20050197350A1, “Novel quinoline, tetrahydroquinazoline, and pyrimidine derivatives and methods of treatment related to the use thereof” (TAISHO PHARMACEUTICAL CO., LTD., priority 2003, published 2005).
# Where a name gives a salt, the structure may show the parent alone.
# Test system: MCH receptors
# Test: MCH receptor activity class (method not given)
# Settings: MCH receptor activity class 1-3 (percent of control at 10^-7 M or IC50)
row,Compound,class
1,N-[(cis-4-{[4-(dimethylamino)pyrimidin-2-yl]amino}cyclohexyl)methyl]-N′-(2-ethyl-6-isopropylphenyl)urea [compound 2422],1 (Class 1: The value of percent of control at 10^−7 M was less than 40% or the value of IC50 was less than 50 nM.)

# Same assay, conditions: MCH receptor; class by percent of control at 10^-7 M or IC50
row,Compound,class
1,"N-cyclopropyl-N′-(cis-4-{[4-(dimethylamino)-5,6,7,8-tetrahydroquinazolin-2-yl]amino}cyclohexyl)thiourea [compound 2028]",3 (Class 3 The value of percent of control at 10^−7 M was more than 60% or the value of IC50 was more than 200 nM.)

# Same assay, conditions: class by percent of control at 10^-7 M or IC50
row,Compound,class
1,"(2-{[4-(4-Dimethylamino-5,6,7,8-tetrahydro-quinazolin-2-ylamino)-cyclohexylamino]-methyl}-cyclohexyl)-phenyl-methanol [compound 1492]",3 (Class 3 The value of percent of control at 10^−7 M was more than 60% or the value of IC50 was more than 200 nM.)
2,"(3-{(1S)-2-[(cis-4-([4-(dimethylamino)-5,6,7,8-tetrahydroquinazolin-2-yl]amino}cyclohexyl)amino]-1-methylethyl}phenyl)(phenyl)methanol [compound 1496]",3 (Class 3 The value of percent of control at 10^−7 M was more than 60% or the value of IC50 was more than 200 nM.)
3,"N4,N4-dimethyl-N2-(cis-4-{[(2,4,5-trimethoxybenzyl)amino]-methyl}cyclohexyl)-5,6,7,8-tetrahydroquinazoline-2,4-diamine [compound 1416]",1 (Class 1: The value of percent of control at 10^−7 M was less than 40% or the value of IC50 was less than 50 nM.)

# Same assay, conditions: class by percent of control at 10^−7 M or IC50
row,Compound,class
1,"COc1ccc(N(C)C(=O)N[C@H]2CC[C@@H](Nc3ncc(C)c(N(C)C)n3)CC2)cc1 [compound 3029, N′-(cis-4-{[4-(dimethylamino)-5-methylpyrimidin-2-yl]amino}cyclohexyl)-N-(4-methoxyphenyl)-N-methylurea]",1 (Class 1: The value of percent of control at 10^−7 M was less than 40% or the value of IC50 was less than 50 nM.)
2,CNc1nc(N[C@H]2CC[C@@H](NC(=O)c3ccc(Cl)c(Cl)c3)CC2)ncc1C [compound 3030],3 (Class 3 The value of percent of control at 10^−7 M was more than 60% or the value of IC50 was more than 200 nM.)
3,"N-(3,4-dimethoxyphenyl)-N′-(cis-4-{[4-(dimethylamino)-5,6-dimethylpyrimidin-2-yl]amino}cyclohexyl)urea [compound 2867]",1 (Class 1: The value of percent of control at 10^−7 M was less than 40% or the value of IC50 was less than 50 nM.)

# Target: MCH receptor (Homo sapiens, UniProt Q99705)
# Test: High throughput functional screening FLIPR/FDSS6000 (intracellular Ca2+ evoked by MCH)
# Assay type: cell-based
# Settings: FLIPR/FDSS, antagonist activity vs 50 nM MCH; class by percent of control at 10^−7 M or IC50; read-out: class
# Text: High Throughput Functional Screening: FLIPR™
# This assay utilized a non-endogenous, constitutively active version of the MCH receptor.
# The concentration of free Ca^2+ in the cytosol of any cell is extremely low, whereas its concentration in the extracellular fluid and endoplasmic reticulum (ER) is very high. Thus, there is a large gradient tending to drive Ca^2+ into the cytosol across both the plasma membrane and ER. The FLIPR™ and FDSS6000™ systems (Molecular Devices Corporation, […] Photonics K.K.) are designed to perform functional cell-based assays, such as the measurement of intracellular calcium for high-throughput screening. The measurement of fluorescent is associated with calcium release upon activation of the Gq-coupled receptors.
# Fluorometric Imaging Plate Reader system was used to allow for rapid, kinetic measurements of intracellular fluorescence in 96 well microplates (or 384 well microplates). Simultaneous measurements of fluorescence in all wells can be made by FLIPR or FDSS6000™ every second with high sensitivity and precision. These systems are ideal for measuring cell-based functional assays such as monitoring the intracellular calcium fluxes that occur within seconds after activation of the Gq coupled receptor.
# Briefly, the cells are seeded into 96 well at 5.5×10^4 cells/well with complete culture media (Dulbecco's Modified Eagle Medium with 10% fetal bovine serum, 2 mM L-glutamine, 1 mM sodium pyruvate and 0.5 mg/ml G418, pH 7.4) for the assay next day. On the day of assay, the media is removed and the cells are incubated with 100 μl of loading buffer (4 μM Fluo4-AM in complete culture media containing 2.5 mM Probenicid, 0.5 mg/ml and 0.2% bovine serum albumin) in 5% CO2 incubator at 37° C. for 1 hr. The loading buffer is removed, and the cells are washed with wash buffer (Hank's Balanced Salt Solution containing 2.5 mM Probenicid, 20 mM HEPES, 0.5 mg/ml and 0.2% bovine serum albumin, pH 7.4)). One hundred fifty μl of wash buffer containing various concentrations of test compound is added to the cells, and the cells are incubated in 5% CO2 incubator at 37° C. for 30 min. […] 530 nm for 290 second. When antagonist activity of compound is tested, 50 nM of MCH is used.
# Use of FLIPR™ and FDSS6000™ can be accomplished by following manufacturer's instruction (Molecular Device Corporation and […] Photonics K.K.).
row,IC50,Compound
1,< 0.05 µM,"Cc1cnc(N[C@H]2CC[C@@H](NC(=O)[C@@H]3C[C@H]3c3ccc(Cl)cc3)CC2)nc1N(C)C (relative stereo) [Example 3316, trans-2-(4-chlorophenyl)-N-(cis-4-{[4-(dimethylamino)-5-methylpyrimidin-2-yl]amino}cyclohexyl)-cyclopropanecarboxamide]"
2,< 0.05 µM,"Cc1cnc(N[C@H]2CC[C@@H](NC(=O)[C@@H]3C[C@H]3c3cccc(Cl)c3)CC2)nc1N(C)C (relative stereo) [Example 3317, trans-2-(3-chlorophenyl)-N-(cis-4-{[4-(dimethylamino)-5-methylpyrimidin-2-yl]amino}cyclohexyl)-cyclopropanecarboxamide]"
3,< 0.05 µM,"Cc1cnc(N[C@H]2CC[C@@H](NC(=O)[C@@H]3C[C@H]3c3ccc(F)c(F)c3)CC2)nc1N(C)C (relative stereo) [Example 3318, trans-2-(3,4-difluorophenyl)-N-(cis-4-{[4-(dimethylamino)-5-methylpyrimidin-2-yl]amino}cyclohexyl)-cyclopropanecarboxamide]"
4,< 0.05 µM,"Cc1cnc(N[C@H]2CC[C@@H](NC(=O)[C@@H]3C[C@H]3c3ccc(Cl)c(Cl)c3)CC2)nc1N(C)C (relative stereo) [Example 3319, trans-2-(3,4-dichlorophenyl)-N-(cis-4-{[4-(dimethylamino)-5-methylpyrimidin-2-yl]amino}cyclohexyl)-cyclopropanecarboxamide]"
5,< 0.05 µM,"Cc1cnc(N[C@H]2CC[C@@H](NC(=O)[C@@H]3C[C@H]3c3cc(C(F)(F)F)cc(C(F)(F)F)c3)CC2)nc1N(C)C (relative stereo) [Example 3320, trans-2-[3,5-bis(trifluoromethyl)phenyl]-N-(cis-4-{[4-(dimethylamino)-5-methylpyrimidin-2-yl]amino}cyclohexyl)-cyclopropanecarboxamide]"

# Same assay, conditions: FLIPR/FDSS, antagonist activity vs 50 nM MCH; class by percent of control at 10^−7 M or IC50; table after the classification; read-out: class
row,IC50,Compound
1,0.05 to 0.2 µM,"CNc1nc(N[C@H]2CC[C@@H](C(N)Cc3ccccc3OC(F)(F)F)CC2)nc2c1CCCC2 (relative stereo) [Example 12, N^4-Methyl-N^2-{cis-4-[(2-trifluoromethoxy-benzyl)-amino-methyl]-cyclohexyl}-5,6,7,8-tetrahydro-quinazoline-2,4-diamine dihydrochloride]"
2,< 0.05 µM,"CN(C)c1nc(N[C@H]2CC[C@@H](C(N)Cc3ccccc3OC(F)(F)F)CC2)nc2c1CCCC2 (relative stereo) [Example 16, N^4,N^4-Dimethyl-N^2-{cis-4-[(2-trifluoromethoxy-benzyl)-amino-methyl]-cyclohexyl}-5,6,7,8-tetrahydro-quinazoline-2,4-diamine dihydrochloride]"
3,0.05 to 0.2 µM,"CN(C)c1cc(N[C@H]2CC[C@@H](NCc3ccc(Br)cc3OC(F)(F)F)CC2)nc2ccccc12 [Example 5, N^2-[cis-4-(4-Bromo-2-trifluoromethoxy-benzyl)-amino-cyclohexyl]-N^4,N^4-dimethyl-quinoline-2,4-diamine dihydrochloride]"
4,0.05 to 0.2 µM,"CN(C)c1cc(N[C@H]2CC[C@@H](NCCc3ccc(Br)cc3OC(F)(F)F)CC2)nc2ccccc12 [Example 6, N^2-{cis-4-[2-(4-Bromo-2-trifluoromethoxy-phenyl)ethylamino]-cyclohexyl}-N^4,N^4-dimethyl-quinoline-2,4-diamine dihydrochloride]"
5,< 0.05 µM,"CN(C)c1cc(N[C@H]2CC[C@@H](CNCc3ccc(Br)cc3OC(F)(F)F)CC2)nc2ccccc12 [Example 7, N^2-{cis-4-[(4-Bromo-2-trifluoromethoxy-benzyl)amino-methyl]-cyclohexyl}-N^4,N^4-dimethyl-quinoline-2,4-diamine dihydrochloride]"
6,> 0.2 µM,"CNc1nc(N[C@H]2CC[C@@H](NCc3ccc(Br)cc3OC(F)(F)F)CC2)nc2c1CCCC2 [Example 9, N^2-[cis-4-(4-Bromo-2-trifluoromethoxy-benzyl)amino-cyclohexyl]-N^4-methyl-5,6,7,8-tetrahydro-quinazoline-2,4-diamine dihydrochloride]"
7,0.05 to 0.2 µM,"CNc1nc(N[C@H]2CC[C@@H](NCCc3ccc(Br)cc3OC(F)(F)F)CC2)nc2c1CCCC2 [Example 10, N^2-{cis-4-[2-(4-Bromo-2-trifluorometboxy-phenyl)-ethylamino]-cyclohexyl}-N^4-methyl-5,6,7,8-tetrahydro-quinazoline-2,4-diamine dihydrochloride]"
8,< 0.05 µM,"CNc1nc(N[C@H]2CC[C@@H](CNCc3ccc(Br)cc3OC(F)(F)F)CC2)nc2c1CCCC2 [Example 11, N^2-{cis-4-[(4-Bromo-2-trifluoromethoxy-beny)amino-methyl]-cyclobexyl}-N^4-methyl-5,6,7,8-tetrahydro-quinazoline-2,4-diamine dihydrochloride]"

# The next lines start with the compound.
row,Compound,IC50
1,"CNc1cc(N[C@H]2CC[C@@H](NCc3ccc(Br)cc3OC(F)(F)F)CC2)nc2ccccc12 [Example 1, N^2-[cis-4-(4-Bromo-2-triflouromethoxy-benzyl)-amino-cyclohexyl]-N^4-methyl-quinoline-2,4-diamine dihydrochloride]",0.05 to 0.2 µM
2,"CNc1cc(N[C@H]2CC[C@@H](NCCc3ccc(Br)cc3OC(F)(F)F)CC2)nc2ccccc12 [Example 2, N^2-{cis-4-[2-(4-Bromo-2-trifluoromethoxy-phenyl)-ethylamino]-cyclohexyl}-N^4-methyl-quinoline2,4-diamine dihydrochloride]",0.05 to 0.2 µM
3,"CNc1cc(N[C@H]2CC[C@@H](CNCc3ccc(Br)cc3OC(F)(F)F)CC2)nc2ccccc12 [Example 3, N^2-{cis-4-[(4-Bromo-2-trifluoromethhxy-benzyl)-amino-methyl]-cyclohexyl}-N^4-methyl-quinoline-2,4-diamine dihydrochloride]",< 0.05 µM

# Same assay, conditions: FLIPR/FDSS, antagonist activity vs 50 nM MCH; representative examples; read-out: IC50
row,IC50,Compound
1,0.011 µM,"CN(C)c1cc(N[C@H]2CC[C@@H](CNCc3ccc(Br)cc3OC(F)(F)F)CC2)nc2ccccc12 [Example 7, N^2-{cis-4-[(4-Bromo-2-trifluoromethoxy-benzyl)amino-methyl]-cyclohexyl}-N^4,N^4-dimethyl-quinoline-2,4-diamine dihydrochloride]"
